This note sets out measurements from patent publication EP0190900A2, “Cephalosporin compounds, their production, and pharmaceutical compositions containing them” (YAMANOUCHI PHARMACEUTICAL CO. LTD., priority 1985, dated 1986).

Molecules are shown by their SMILES. Values after ≈ are worked out from the molar mass of the structure shown. Bounds are passed on as bounds.

One data set concerns E. coli D-1. The experiment in a line: Antibacterial activity (minimum effective inhibitory concentration). The following applies: Escherichia coli, D1. Format: cell-based. The text has this: (§1) Antibacterial activities (minimum effective inhibitory concentrations) of compounds of formula I (taken from the following Examples) are shown in the following Table.
In the next data set the test system is K. pneumoniae ATCC 10031. Described as above. The following applies: Klebsiella pneumoniae, ATCC10031. It is filed as cell-based.
Description: as §1

A further data set concerns P. aeruginosa NCTC 10490. The data set is described as above. Format: cell-based. The following applies: Pseudomonas aeruginosa, NCTC10490.
Description: as §1

In a further data set the test system is S. aureus FDA 209P JC-1. The description is as above. It is filed as cell-based. The conditions noted are these: Staphylococcus aureus, FDA209P.
Description: as §1

The subject of a further data set is S. epidermidis IID 866. Described as above. The following applies: Staphylococcus epidermidis, IID866. Format: cell-based.
Description: as §1

Data set [1] in a line: Acute toxicity, intravenous injection into mice. It is filed as in vivo. How it is done: Some of the compounds of this invention have low toxicity (acute toxicity).
The compound of Example 4 has, in particular, low toxicity.
200 mg of /the compound of Example 4 was dissolved in 2 ml of distilled water and after adjusting the pH of the solution to about 7 by addition of sodium hydrogen carbonate to form an injection solution, the solution was intravenously injected into mice (body weights: 26-28 g; ICR ? 5W) over a period of 4 minutes at a rate of 1 ml/kg. There were no lethal cases for administration doses below 4.0 g/kg.

As for `CO/N=C(\C(=O)N[C@@H]1C(=O)N2C(C(=O)O)=C(CSc3nnnn3C)CS[C@H]12)c1csc(N)n1` [Cefmeno-xime], the MIC is 0.025 µg/mL (≈ 0.0489 µM) against E. coli D-1; ≤ 0.006 µg/mL against K. pneumoniae ATCC 10031; 0.2 µg/mL (≈ 0.391 µM) with P. aeruginosa NCTC 10490; 1.56 µg/mL (≈ 3.05 µM) with S. aureus FDA 209P JC-1; 0.39 µg/mL (≈ 0.762 µM) in the data set on S. epidermidis IID 866.

Regarding `CO/N=C(\C(=O)N[C@@H]1C(=O)N2C(C(=O)[O-])=C(CSc3cc[n+](CC#N)cc3)CS[C@H]12)c1csc(N)n1` [Example 1, (Z)-7-[α-(2-amino-4-thiazolyl)-α-(methoxyimino)acetamido]-3-(1-cyanomethyl-4-pyridinio)thiomethyl-Δ^3-cephem-4-carboxylate], the MIC turned out to be 0.013 µg/mL (≈ 0.0238 µM) in the data set with E. coli D-1; 0.013 µg/mL (≈ 0.0238 µM) against K. pneumoniae ATCC 10031; 0.39 µg/mL (≈ 0.715 µM) with P. aeruginosa NCTC 10490; 0.2 µg/mL (≈ 0.367 µM) with S. aureus FDA 209P JC-1; 0.1 µg/mL (≈ 0.183 µM) with S. epidermidis IID 866.

Take `CO/N=C(\C(=O)N[C@@H]1C(=O)N2C(C(=O)[O-])=C(CSc3cc[n+](Cc4c[nH]cn4)cc3)CS[C@H]12)c1csc(N)n1` [Example 15, (Z)-7-[α-(2-amino-4-thiazolyl)-α-(methoxyimino)acetamido]-3-(1-(4-imidazolyl)methyl-4-pyridinio)thiomethyl-Δ^3-cephem-4-carboxylate]: the MIC with E. coli D-1 was found to be 0.013 µg/mL (≈ 0.0222 µM); with K. pneumoniae ATCC 10031, 0.013 µg/mL (≈ 0.0222 µM); in the data set on P. aeruginosa NCTC 10490 it was 0.39 µg/mL (≈ 0.665 µM); in the data set with S. aureus FDA 209P JC-1 it was 0.2 µg/mL (≈ 0.341 µM); in the data set on S. epidermidis IID 866 it was 0.1 µg/mL (≈ 0.17 µM).

`CON=C(C)C[n+]1ccc(SCC2=C(C(=O)[O-])N3C(=O)C(NC(=O)C(=NOC)c4csc(N)n4)C3SC2)cc1` (stereo not drawn) [Example 17, (Z)-7-[α-(2-amino-4-thiazolyl)-α-(methoxyimino)acetamido]-3-(1-(2-methoxyimino-propyl)-4-pyridinio)thiomethyl-Δ^3-cephem-4-carboxylate]: the MIC in the data set on E. coli D-1 was found to be 0.013 µg/mL (≈ 0.022 µM); against K. pneumoniae ATCC 10031 it was 0.013 µg/mL (≈ 0.022 µM); against P. aeruginosa NCTC 10490, 0.78 µg/mL (≈ 1.32 µM); against S. aureus FDA 209P JC-1, 0.2 µg/mL (≈ 0.338 µM); against S. epidermidis IID 866 it was 0.2 µg/mL (≈ 0.338 µM).

For `CCCC(=O)C[n+]1ccc(SCC2=C(C(=O)[O-])N3C(=O)C(NC(=O)C(=NOC)c4csc(N)n4)C3SC2)cc1` (stereo not drawn) [Example 20, (Z)-7-[α-(2-Amino-4-thiazolyl)-α-(methoxyimino)acetamido]-3-[(1-(2-oxopentyl)-4-pyridinio]thiomethyl-Δ^3-cephem-4-carboxylate], the MIC was ≤ 0.006 µg/mL with E. coli D-1; ≤ 0.006 µg/mL in the data set with K. pneumoniae ATCC 10031; 0.39 µg/mL (≈ 0.66 µM) in the data set on P. aeruginosa NCTC 10490; 0.2 µg/mL (≈ 0.339 µM) against S. aureus FDA 209P JC-1; 0.1 µg/mL (≈ 0.169 µM) against S. epidermidis IID 866.

Regarding `CC(=O)C[n+]1ccc(SCC2=C(C(=O)[O-])N3C(=O)C(NC(=O)C(=NOCCF)c4csc(N)n4)C3SC2)cc1` (stereo not drawn) [Example 12, (Z)-7-[α-(2-amino-4-thiazolyl)-α-(2-fluoroethoxyimino)acetamidoa-3-[1-acetonyl-4-pyridinio]thiomethyl-Δ^3-cephem-4-carboxylate], the MIC against E. coli D-1 came to 0.025 µg/mL (≈ 0.042 µM); against K. pneumoniae ATCC 10031, 0.013 µg/mL (≈ 0.0219 µM); in the data set on P. aeruginosa NCTC 10490, 0.39 µg/mL (≈ 0.656 µM); in the data set with S. aureus FDA 209P JC-1, 0.2 µg/mL (≈ 0.336 µM); against S. epidermidis IID 866 it was 0.1 µg/mL (≈ 0.168 µM).

Regarding `CO/N=C(\C(=O)N[C@@H]1C(=O)N2C(C(=O)[O-])=C(CSc3cc[n+](CC(C)=O)cc3)CS[C@H]12)c1csc(N)n1` [Example 4, (Z)-7-[α-(2-amino-4-thiazolyl)-α-(methoxyimino)acetamido]-3-[1-acetonyl-4-pyridinio)thiomethyl-Δ^3-cephem-4-carboxylate], the MIC in the data set on E. coli D-1 was ≤ 0.006 µg/mL; in the data set on K. pneumoniae ATCC 10031, ≤ 0.006 µg/mL; against P. aeruginosa NCTC 10490, 0.2 µg/mL (≈ 0.355 µM); against S. aureus FDA 209P JC-1, 0.2 µg/mL (≈ 0.355 µM); with S. epidermidis IID 866, 0.1 µg/mL (≈ 0.178 µM). The “administration doses with no lethal cases” value in data set [1] (ICR mice (26-28 g), intravenous injection over 4 minutes, aqueous solution at about pH 7) is “below 4.0 g/kg”. Further, the “toxicity (acute toxicity)” value in data set [1] (statement in words) was “low toxicity”.

Consider `C#CC[n+]1ccc(SCC2=C(C(=O)[O-])N3C(=O)[C@@H](NC(=O)/C(=N\OC)c4csc(N)n4)[C@H]3SC2)cc1` [Example 9, (Z)-7-[a-(2-amino-4-thiazolyl)-a-(methoxyimino)acetamido]-3-[1-propargyl-4-pyridinio]thiomethyl-Δ^3-cephem-4-carboxylate], for which the MIC was ≤ 0.006 µg/mL against E. coli D-1; ≤ 0.006 µg/mL against K. pneumoniae ATCC 10031; 0.39 µg/mL (≈ 0.716 µM) with P. aeruginosa NCTC 10490; 0.1 µg/mL (≈ 0.184 µM) against S. aureus FDA 209P JC-1; 0.1 µg/mL (≈ 0.184 µM) with S. epidermidis IID 866.
